Measured values taken from patent US20160362416A1, “ANTIVIRAL COMPOUNDS” (Gilead Sciences, Inc., priority 2012, published 2016).

Columns and labels:
[1] = tested on: stable HCV 1a RLuc replicon cells (genotype 1a H77 replicon); test: HCV genotype 1a RLuc replicon reporter assay; format: cell-based; conditions: Hepatitis C virus; stable genotype 1a H77 RLuc replicon cells, 72 hours
[2] = tested on: Y93H in genotype 3a NS5A replicon; test: Resistance mutant replicon assay, genotype 3a NS5A Y93H; format: cell-based, HCV; conditions: Hepatitis C virus, read-out: 3a Y93H (nM)
In short: (§1)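 Mutant NS5A replicons (1a or 1b Pi-RLuc backbone; 3a NS5A in chimeric 1b) made by site-directed mutagenesis, RNA transiently transfected into Huh-7-derived cured-51 cells. Cells treated with 3-fold serial dilutions for 72 h; Renilla luciferase read; EC50 by non-linear regression.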

[3] = tested on: NS5A chimeric genotype 1b Con1 replicon with genotype 3a S52 strain NS5A gene; test: HCV genotype 3a NS5A chimeric replicon assay; format: cell-based; conditions: Hepatitis C virus, 72 h, read-out: 3a (nM)
In short: (§2)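 Chimeric replicons for 3a and 4a use a Pi-RLuc reporter and were transiently transfected into Huh-Lunet cells; the 2b chimera (RLuc-Neo) was likewise transient in Huh-Lunet; 1b cells are stable. Cells were exposed to 3-fold serial compound dilutions for 72 h, then lysed. EC50s came from non-linear regression of Renilla luciferase signal.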

[4] = IV and PO single dose pharmacokinetic studies in SD rats; format: in vivo; conditions: Sprague-Dawley, rat, plasma, male SD rats, IV infusion 1 mg/kg, oral gavage 2 mg/kg, read-out: Rat % F
Experimental: IV and PO Single Dose Pharmacokinetic Studies in SD Rats: The pharmacokinetics of selected compounds was characterized in male Sprague-Dawley (SD) rats (250-300 g). In this study, two groups of naïve purebred SD rats (N=3 per group, fasted over night) received the selected compound either as an intravenous (IV) infusion (1 mg/kg over 30 minutes) via the jugular vein or by oral gavage (2 mg/kg). The intravenous (IV) dosing vehicle was 5% ethanol, 35% polyethylene glycol 400 (PEG 400) and 60% water pH 2.0. The oral dosing vehicle was 5% ethanol, 55% PEG 400 and 40% citrate buffer pH 2.2.
Serial blood samples (approximately 0.3 mL each) were collected from jugular vein or other suitable vein at specified time points. For the IV infusion group, the blood samples were collected predose and at 0.25, 0.48, 0.58, 0.75, 1.5, 3, 6, 8, 12 and 24 hours after the start of infusion. For the oral group, the blood samples were collected predose and at 0.25, 0.50, 1, 2, 4, 6, 8, 12 and 24 hours after dosing. The blood samples were collected into Vacutainer™ tubes containing EDTA-K3 as the anti-coagulant and were centrifuged at approximately 4° C. to obtain plasma. The plasma samples were stored at −20° C. until analysis by LC/MS/MS.
A bioanalytical method utilizing high performance liquid chromatography coupled to tandem mass spectrometry (LC/MS/MS) was developed for analysis of the selected compound in rat plasma. Detection was performed using selected reaction monitoring (SRM); Ions representing the precursor (M+H)^+ species was selected in quadrupole 1 (Q1) and collided with argon gas in the collision cell (Q2) to generate specific product ion, which was subsequently monitored by quadrupole 3 (Q3). Standard curve and quality control samples were prepared in male rat plasma and processed in the same way as the test samples to generate quantitative data.
Pharmacokinetic parameters were generated using non-compartmental pharmacokinetic analysis (Phoenix WinNonlin, version 6.3). Values below the lower limit of quantification (LLOQ) were assigned a value of zero if predose and treated as missing thereafter. Area under the curve (AUC) was calculated using the linear trapezoidal rule. The oral bioavailability (% F) was determined by comparison of the area under the curve (AUC) of the compound and/or a metabolite generated in plasma following oral administration to that generated following intravenous administration.

[5] = tested on: stable HCV 1b RLuc replicon cells (genotype 1b Con1 replicon); test: HCV genotype 1b RLuc replicon reporter assay; format: cell-based; conditions: Hepatitis C virus; stable genotype 1b Con1 RLuc replicon cells, 72 hours
In short: as §2

[6] = tested on: Q30E in genotype 1a NS5A replicon; test: Resistance mutant replicon assay, genotype 1a NS5A Q30E; format: cell-based, HCV; conditions: Hepatitis C virus, read-out: 1a Q30E (nM)
Experimental: (§3) Evaluation of cell-based anti-HCV activity: Antiviral potency (EC50) was determined using a Renilla luciferase (RLuc)-based HCV replicon reporter assay. To perform the assay for genotype 1 and 2a JFH-1, stable HCV 1a RLuc replicon cells (harboring a dicistronic genotype 1a H77 replicon that encodes a RLuc reporter), stable HCV lb RLuc replicon cells (harboring a dicistronic genotype 1b Conl replicon that encodes a RLuc reporter), or stable HCV 2a JFH-1 Rluc replicon cells (harboring a dicistronic genotype 2a JFH-1 replicon that encodes a RLuc reporter; with L31 present in NS5A) were dispensed into 384-well plates for EC50 assays. To perform the assay for genotype 2a (with M31 present in NS5A) or 2b, NS5A chimeric genotype 2a JFH-1 replicons that encodes a RLuc-Neo reporter and either genotype 2a J6 strain NS5A gene or genotype 2b MD2b-1 strain NS5A gene (both with M31 present) respectively, were either transiently transfected (t) into Huh-Lunet cells or were established as stably replicating replicon cells (s) is provided. Either cells were dispensed into 384-well plates for EC50 assays. To perform the assay for genotype 3 and 4, NS5A chimeric genotype 1b Conl replicons that encodes a Pi-RLuc reporter and either genotype 3a S52 strain NS5A gene or genotype 4a ED43 strain NS5A gene respectively, were transiently transfected (t) into Huh-Lunet cells, which were subsequently dispensed into 384-well plates. Compounds were dissolved in DMSO at a concentration of 10 mM and diluted in DMSO either manually or using an automated pipeting instrument. Serially 3-fold diluted compounds were either manually mixed with cell culture media and added to the seeded cells or directly added to the cells using an automated instrument. DMSO was used as a negative (solvent; no inhibition) control, and the protease inhibitor ITMN-191 was included at a concentration >100×EC50 as a positive control. 72 hours later, cells were lysed and Renilla luciferase activity quantified as recommended by the manufacturer (Promega-Madison, Wis.). Non-linear regression was performed to calculate EC50 values.
To determine the antiviral potency (EC50) against resistance mutants, resistance mutations, including M28T, Q30R, Q30H, Q30E, L31M, Y93C, Y93H, and Y93N in genotype 1a NS5A, Y93H and L31V/Y93H in genotype 1b NS5A, and Y93H for in genotype 3a NS5A, were introduced individually into either 1a Pi-Rluc or 1b Pi-Rluc replicons by site directed mutagenesis. Replicon RNA of each resistant mutant was transiently transfected into Huh-7-derived cured-51 cells and antiviral potency was determined on these transfected cells as described above.

[7] = tested on: stable HCV 2a JFH-1 Rluc replicon cells (L31 present in NS5A); test: HCV genotype 2a JFH-1 RLuc replicon reporter assay; format: cell-based; conditions: Hepatitis C virus, 72 h, read-out: 2a JFH (nM)
[8] = tested on: NS5A chimeric genotype 2a JFH-1 replicon with genotype 2a J6 strain NS5A gene (M31); test: HCV genotype 2a J6 NS5A chimeric replicon assay, transient (t); format: cell-based; conditions: Hepatitis C virus, 72 h, read-out: 2a J6 (t) (nM)
[9] = tested on: NS5A chimeric genotype 2a JFH-1 replicon with genotype 2b MD2b-1 strain NS5A gene (M31); test: HCV genotype 2b NS5A chimeric replicon assay, stable (s); format: cell-based; conditions: Hepatitis C virus, 72 h, read-out: 2b (s) (nM)
[10] = tested on: Y93H in genotype 1a NS5A replicon; test: Resistance mutant replicon assay, genotype 1a NS5A Y93H; format: cell-based, HCV; conditions: Hepatitis C virus, read-out: 1a Y93H (nM)
In short: as §1

[11] = tested on: NS5A chimeric genotype 2a JFH-1 replicon with genotype 2b MD2b-1 strain NS5A gene (M31); test: HCV genotype 2b NS5A chimeric replicon assay, transient (t); format: cell-based; conditions: Hepatitis C virus, 72 h, read-out: 2b (t) (nM)
Experimental: as §3

[12] = tested on: NS5A chimeric genotype 1b Con1 replicon with genotype 4a ED43 strain NS5A gene; test: HCV genotype 4a NS5A chimeric replicon assay; format: cell-based; conditions: Hepatitis C virus, 72 h, read-out: 4a (s) (nM)
[13] = tested on: Y93N in genotype 1a NS5A replicon; test: Resistance mutant replicon assay, genotype 1a NS5A Y93N; format: cell-based, HCV; conditions: Hepatitis C virus, read-out: 1a Y93N (nM)
In short: as §1

Structure (SMILES) | EC50 [1] | EC50 [2] | EC50 [3] | bioavailability [4] | EC50 [5] | EC50 [6] | EC50 [7] | EC50 [8] | EC50 [9] | EC50 [10] | EC50 [11] | EC50 [12] | EC50 [13]
COC(=O)N[C@H](C(=O)N1[C@@H](C)CC[C@H]1c1ncc(-c2ccc3c(c2)COc2cc4c(ccc5nc([C@@H]6CC[C@H](C)N6C(=O)[C@@H](NC(=O)OC)C6CCOCC6)[nH]c54)cc2-3)[nH]1)C(C)C [Comp 5, reference compound] | 22 pM | 0.549 nM | 0.041 nM | 22% | 29 pM | 0.297 nM | 0.013 nM | 0.012 nM | 0.054 nM | 0.466 nM | – | – | –
COC(=O)N[C@H](C(=O)N1[C@@H](C)CC[C@H]1c1nc2ccc3cc4c(cc3c2[nH]1)OCc1cc(-c2cnc([C@@H]3CC[C@H](C)N3C(=O)[C@@H](NC(=O)OC)C3CCOCC3)[nH]2)ccc1-4)C(C)C [Comp 7, reference compound] | 18 pM | – | 0.035 nM | 10.2% | 28 pM | – | 0.015 nM | 0.035 nM | 0.088 nM | – | 0.037 nM | 0.019 nM | –
CC[C@H]1CC[C@@H](c2nc3ccc4cc5c(cc4c3[nH]2)OCc2cc(-c3cnc([C@@H]4CC[C@H](C)N4C(=O)[C@@H](NC(=O)OC)C(C)C)[nH]3)ccc2-5)N1C(=O)[C@@H](NC(=O)OC)[C@H]1CCCOC1 [Example AG, Methyl{(1S)-2-[(2S,5S)-2-ethyl-5-(9-{2-[(2S,5S)-1-{(2S)-2[(methoxycarbonyl)amino]-3-methylbutanoyl}-5-methylpyrrolidin-2-yl]-1H-imidazol-5-yl}-1,11-dihydroisochromeno[4′,3′:6,7]naphtho[1,2-d]imidazol-2-yl)pyrrolidin-1-yl]-2-oxo-1-[(3R)-tetrahydro-2H-pyran-3-yl]ethyl}carbamate] | 23 pM | – | 0.137 nM | 27.8% | 26 pM | – | 0.025 nM | 0.121 nM | 0.092 nM | – | – | 0.014 nM | –
COC(=O)N[C@H](C(=O)N1[C@H](c2ncc(-c3ccc4c(c3)COc3cc5c(ccc6nc([C@@H]7CC[C@H](C)N7C(=O)[C@@H](NC(=O)OC)C7C[C@@H](C)O[C@H](C)C7)[nH]c65)cc3-4)[nH]2)C[C@@H]2CCC[C@@H]21)C(C)C (stereo partly drawn) [Example AY, methyl {(2S)-1-[(2S,3aS,6aS)-2-(5-{2-[(2S,5S)-1-{(2S)-2-[(2R,6R)-2,6-dimethyltetrahydro-2H-pyran-4-yl]-2-[(methoxycarbonyl)amino]acetyl}-5-methylpyrrolidin-2-yl]-1,11-dihydroisochromeno[4′,3′:6,7]naphtho[1,2-d]imidazol-9-yl}-1H-imidazol-2-yl)hexahydrocyclopenta[b]pyrrol-1(2H)-yl]-3-methyl-1-oxobutan-2-yl}carbamate] | 27 pM | 8.48 nM | 0.023 nM | – | 28 pM | – | 0.018 nM | 0.013 nM | – | 0.531 nM | 0.03 nM | 0.011 nM | 1.18 nM
CC[C@H](C)[C@H](NC(=O)OC)C(=O)N1[C@@H](C)CC[C@H]1c1nc2ccc3cc4c(cc3c2[nH]1)OCc1cc(-c2cnc([C@@H]3CC[C@H](C)N3C(=O)[C@@H](NC(=O)OC)C3C[C@@H](C)O[C@H](C)C3)[nH]2)ccc1-4 (stereo partly drawn) [Example BL, methyl{(2S,3S)-1-[(2S,5S)-2-(9-{2-[(2S,5S)-1-{(2S)-2-[(2R,6R)-2,6-dimethyltetrahydro-2H-pyran-4-yl]-2-[(methoxycarbonyl)amino]acetyl}-5-methylpyrrolidin-2-yl]-1H-imidazol-5-yl}-1,11-dihydroisochromeno[4′,3′:6,7]naphtho[1,2-d]imidazol-2-yl)-5-methylpyrrolidin-1-yl]-3-methyl-1-oxopentan-2-yl}carbamate] | 18 pM | 1.05 nM | 0.014 nM | – | 24 pM | – | 0.009 nM | 0.022 nM | – | 0.228 nM | 0.021 nM | 0.006 nM | 0.531 nM
